{"source": "patent US20090117102A1", "about": "“Methods and compositions using CD3 agonists” (priority 2004, published 2009)", "origin": "cited, not measured here", "key": {"T cell [1]": {"tested_on": "T cell", "conditions": "Van Wauve, J. Immunol. 124 (1980)"}, "T cell [2]": {"tested_on": "T cell", "conditions": "Wong Transplantation 50 (1990)"}}}
{"substance": "OKT3: murine monoclonal antibody specific for the human CD3 antigen, first monoclonal antibody approved by the FDA", "values": [{"measurement": "T cell mitogen activity", "setting": "T cell [1]", "value": "potent T cell mitogen"}, {"measurement": "T cell killer activity", "setting": "T cell [2]", "value": "potent T cell killer"}]}
